According to ChEMBL document CHEMBL4842376, “Design, synthesis and biological evaluation of novel hybrids targeting mTOR and HDACs for potential treatment of hepatocellular carcinoma” (Eur J Med Chem, 2021):
Active and inactive are the calls of the source. The calls are words filed in the database; no cut-off is given here.

Key:
[1] = test system: A549; experiment: cells; type: functional, cell-based; details: Homo sapiens, A549, 72 h
Description: Antiproliferative activity against human A549 cells assessed as inhibition of cell growth measured after 72 hrs by MTT assay

[2] = test system: SNU-423; experiment: Antiproliferative activity against human SNU-423 cells assessed as inhibition of cell growth measured after 72 hrs by MTT assay; type: functional, cell-based; details: SNU-423, 72 h
[3] = test system: SK-HEP1; experiment: cells; type: functional, cell-based; details: Homo sapiens, SK-HEP1, 72 h
Description: Antiproliferative activity against human SK-HEP1 cells assessed as inhibition of cell growth measured after 72 hrs by MTT assay

[4] = test system: Hep 3B2; experiment: cells; type: functional, cell-based; details: Homo sapiens, Hep3B, 72 h
Description: Antiproliferative activity against human Hep3B cells assessed as inhibition of cell growth measured after 72 hrs by MTT assay

[5] = molecular target: T1, Serine/threonine-protein kinase mTOR (Homo sapiens, UniProt P42345); experiment: Inhibition of mTOR (unknown origin) at 1 uM using U-Light-4E-BP1 peptide as a substrate in the presence of ATP incubated for 30 mins by Lance ultra assay relative to control
[6] = molecular target: T1, Serine/threonine-protein kinase mTOR; experiment: Inhibition of mTOR (unknown origin) using U-Light-4E-BP1 peptide as a substrate in the presence of ATP incubated for 30 mins by Lance ultra assay
[7] = molecular target: Histone deacetylase 1 (Homo sapiens, UniProt Q13547); experiment: Inhibition of HDAC1 (unknown origin) using Ac-peptide as a substrate pretreated for 15 mins followed by substrate addition
[8] = molecular target: Histone deacetylase 3 (Homo sapiens, UniProt O15379); experiment: Inhibition of HDAC3 (unknown origin) using Ac-peptide as a substrate pretreated for 15 mins followed by substrate addition
[9] = molecular target: T2, Histone deacetylase 8 (Homo sapiens, UniProt Q9BY41); experiment: Inhibition of HDAC8 (unknown origin) using Ac-peptide as a substrate pretreated for 15 mins followed by substrate addition
T2 sequence (Q9BY41 whole entry): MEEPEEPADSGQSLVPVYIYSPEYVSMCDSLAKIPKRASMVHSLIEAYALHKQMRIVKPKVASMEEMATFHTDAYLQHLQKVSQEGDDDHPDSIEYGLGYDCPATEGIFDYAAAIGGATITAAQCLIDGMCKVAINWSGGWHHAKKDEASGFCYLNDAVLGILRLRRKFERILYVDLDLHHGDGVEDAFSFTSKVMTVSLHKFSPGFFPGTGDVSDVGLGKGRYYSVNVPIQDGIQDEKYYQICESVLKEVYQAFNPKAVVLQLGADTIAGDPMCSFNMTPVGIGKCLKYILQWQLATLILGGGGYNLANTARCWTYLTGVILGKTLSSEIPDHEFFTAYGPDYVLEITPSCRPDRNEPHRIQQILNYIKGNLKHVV

[10] = molecular target: Histone deacetylase (Homo sapiens) (UniProt Q13547+O15379+Q9UBN7+Q92769+Q9UQL6+Q8WUI4+Q9BY41+Q96DB2+P56524+Q9UKV0+Q969S8); experiment: Inhibition of HDAC in human HepG2 cells assessed as upregulation of alpha-tubulin acetylation at 6 uM measured after 24 hrs by western blot analysis; type: cell-based
[11] = molecular target: T1, Serine/threonine-protein kinase mTOR; experiment: Activation of mTOR in human HepG2 cells assessed as increase in p70S6K phosphorylation at 1.5 uM measured after 24 hrs by western blot analysis; type: cell-based; details: filed as activator
[12] = molecular target: T1, Serine/threonine-protein kinase mTOR; experiment: Activation of mTOR in human HepG2 cells assessed as increase in 4EBP1 phosphorylation at 1.5 uM measured after 24 hrs by western blot analysis; type: cell-based; details: filed as activator
[13] = test system: HepG2; experiment: Induction of cell cycle arrest in human HepG2 cells assessed as accumulation of cells in G0/G1 phase at 1.5 uM measured after 24 hrs by propidium iodide staining based flow cytometry analysis (reference value: 52.7 to 63.2%); type: functional
[14] = test system: HepG2; experiment: Induction of cell cycle arrest in human HepG2 cells assessed as accumulation of cells in S phase at 1.5 uM measured after 24 hrs by propidium iodide staining based flow cytometry analysis (Rvb= 17 to 26.4%); type: functional
[15] = test system: HepG2; experiment: Induction of cell cycle arrest in human HepG2 cells assessed as accumulation of cells in G0/G1 phase at 3 uM measured after 24 hrs by propidium iodide staining based flow cytometry analysis (reference value: 52.7 to 63.2%); type: functional
[16] = test system: HepG2; experiment: Induction of cell cycle arrest in human HepG2 cells assessed as accumulation of cells in S phase at 3 uM measured after 24 hrs by propidium iodide staining based flow cytometry analysis (reference value: 17 to 26.4%); type: functional
[17] = test system: HepG2; experiment: Induction of cell cycle arrest in human HepG2 cells assessed as accumulation of cells in G2/M phase at 3 uM measured after 24 hrs by propidium iodide staining based flow cytometry analysis (reference value: 17.8 to 18.5%); type: functional
[18] = test system: HepG2; experiment: Induction of cell cycle arrest in human HepG2 cells assessed as accumulation of cells in S phase at 6 uM measured after 24 hrs by propidium iodide staining based flow cytometry analysis (reference value: 17 to 26.4%); type: functional
[19] = test system: HepG2; experiment: Induction of cell cycle arrest in human HepG2 cells assessed as accumulation of cells in G2/M phase at 6 uM measured after 24 hrs by propidium iodide staining based flow cytometry analysis (Rvb= 17.8 to 18.5%); type: functional
[20] = test system: HepG2; experiment: Induction of apoptosis in human HepG2 cells assessed as live cells at 2.5 uM measured after 24 hrs by Annexin V-FITC/PI staining based flow cytometry analysis (Rvb= 84.6%); type: functional
[21] = test system: HepG2; experiment: Induction of apoptosis in human HepG2 cells assessed as late apoptotic cells at 2.5 uM measured after 24 hrs by Annexin V-FITC/PI staining based flow cytometry analysis (Rvb= […]); type: functional
[22] = test system: HepG2; experiment: Induction of apoptosis in human HepG2 cells assessed as early apoptotic cells at 5 uM measured after 24 hrs by Annexin V-FITC/PI staining based flow cytometry analysis (Rvb= 6.15%); type: functional
[23] = test system: HepG2; experiment: Induction of apoptosis in human HepG2 cells assessed as late apoptotic cells at 5 uM measured after 24 hrs by Annexin V-FITC/PI staining based flow cytometry analysis (Rvb= […]); type: functional
[24] = test system: HepG2; experiment: Induction of apoptosis in human HepG2 cells assessed as necrotic cells at 5 uM measured after 24 hrs by Annexin V-FITC/PI staining based flow cytometry analysis (Rvb= 0.082%); type: functional
[25] = test system: HepG2; experiment: Induction of apoptosis in human HepG2 cells assessed as early apoptotic cells at 10 uM measured after 24 hrs by Annexin V-FITC/PI staining based flow cytometry analysis (Rvb= 6.15%); type: functional
[26] = test system: HepG2; experiment: Induction of apoptosis in human HepG2 cells assessed as dead cells at 10 uM measured after 24 hrs by Annexin V-FITC/PI staining based flow cytometry analysis (Rvb= 0.082%); type: functional
[27] = in vitro; details: human, L02 cells versus HepG2 cells
Description: Selectivity index, ratio of IC50 for cytotoxicity against human L02 cells to IC50 for antiproliferative activity against human HepG2 cells

[28] = molecular target: T1, Serine/threonine-protein kinase mTOR; experiment: Inhibition of mTOR in human HepG2 cells assessed as reduction in phosphorylation of p70S6K measured after 24 hrs by western blot analysis; type: cell-based; details: dose 1.5-6 µM
[29] = molecular target: T1, Serine/threonine-protein kinase mTOR; experiment: Inhibition of mTOR in human HepG2 cells assessed as reduction in phosphorylation of 4EBP1 measured after 24 hrs by western blot analysis; type: cell-based; details: dose 1.5-6 µM

Chain of Histone deacetylase 3 (O15379 whole entry): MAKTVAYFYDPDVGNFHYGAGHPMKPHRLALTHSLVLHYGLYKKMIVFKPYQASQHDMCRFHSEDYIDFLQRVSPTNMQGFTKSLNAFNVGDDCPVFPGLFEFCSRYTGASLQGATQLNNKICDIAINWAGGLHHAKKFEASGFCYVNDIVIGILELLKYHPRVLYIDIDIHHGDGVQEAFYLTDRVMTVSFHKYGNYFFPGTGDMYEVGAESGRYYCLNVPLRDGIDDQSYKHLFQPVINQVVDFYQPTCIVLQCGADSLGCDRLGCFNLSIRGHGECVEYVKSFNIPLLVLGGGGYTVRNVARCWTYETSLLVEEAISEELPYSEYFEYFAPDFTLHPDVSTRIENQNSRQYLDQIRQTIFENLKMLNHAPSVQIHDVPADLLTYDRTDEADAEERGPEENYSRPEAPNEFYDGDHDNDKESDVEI
Chain of Histone deacetylase 1 (Q13547 whole entry): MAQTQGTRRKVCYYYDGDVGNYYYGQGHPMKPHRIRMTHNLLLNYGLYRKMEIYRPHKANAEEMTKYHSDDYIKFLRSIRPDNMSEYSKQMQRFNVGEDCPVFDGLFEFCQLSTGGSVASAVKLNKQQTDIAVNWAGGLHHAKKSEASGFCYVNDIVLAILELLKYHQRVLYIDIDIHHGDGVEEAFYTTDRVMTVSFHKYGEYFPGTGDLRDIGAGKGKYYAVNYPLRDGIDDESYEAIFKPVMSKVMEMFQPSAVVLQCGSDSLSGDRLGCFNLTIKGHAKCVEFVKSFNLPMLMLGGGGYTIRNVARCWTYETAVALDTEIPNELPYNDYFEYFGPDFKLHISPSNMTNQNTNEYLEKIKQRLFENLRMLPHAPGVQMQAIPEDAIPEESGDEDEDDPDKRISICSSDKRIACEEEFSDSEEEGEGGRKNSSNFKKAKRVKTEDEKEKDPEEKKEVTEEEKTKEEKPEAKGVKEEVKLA

SMILES | IC50 [1] [µM] | IC50 [2] [µM] | IC50 [3] [µM] | IC50 [4] [µM] | inhibition [5] [%] | IC50 [6] [µM] | IC50 [7] [µM] | IC50 [8] [µM] | IC50 [9] [µM] | inhibition [10] | Activity [13] [%] | Activity [14] [%] | Activity [15] [%] | Activity [16] [%] | Activity [17] [%] | Activity [18] [%] | Activity [19] [%] | Activity [20] [%] | Activity [21] [%] | Activity [22] [%] | also measured
Nc1ncnc2c1c(-c1cnc3[nH]ccc3c1)nn2CCCCCCCCC(=O)NO | 12.2 | 7.5 | 11.2 | 8.39 | 97.7 | 0.0923 | 0.02 | 0.034 | 0.733 | Active | 60.1 | 20.2 | 64.5 | 16.2 | 18.6 | 11.5 | 23.5 | 69.7 | 12.3 | 12 | Activity [11]: Active; Activity [12]: Active; Activity [23]: 10.4%; Activity [24]: 0.15%; Activity [25]: 19.7%; Activity [26]: 0.56%; selectivity ratio [27]: 11.5
Nc1nc2cc(-c3nn(CCCCCCC(=O)NO)c4ncnc(N)c34)ccc2o1 | 33 | 6.1 | 2.69 | 14 | 99 | 0.00767 | 0.0031 | 0.0046 | 0.231 | Active | 66.2 | 16.4 | 70.4 | 15.2 | 10.8 | 7.78 | 15.7 | 63.7 | 8.06 | 15.3 | inhibition [28]: Dose-Dependent Effect; inhibition [29]: Dose-Dependent Effect; Activity [23]: 14.5%; Activity [24]: 0.59%; Activity [25]: 30.4%; Activity [26]: 0.26%; selectivity ratio [27]: 15.4
